Laboratory results taken from PubChem BioAssay AID1963864 (Molecular Pharmacology Branch, DTP, NCI, 2024).

System: KRAS PDC multicell spheroid viability
Assay: Anticancer human tumor 521955-158-R6-J3-PDC patient-derived pancreatic carcinoma cell line growth inhibition [KRAS2]
Conditions: for IC50: curve of first compound; for viability, T/C: stronger effect = lower value
Outline: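 Combination screen of spheroid viability in tumor-cell co-cultures with endothelial (HUVEC) and mesenchymal stem cell stroma. Each agent was tested in half-log dilutions, topping at clinical Cmax or at 10 microM without a known Cmax.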

[1] = second compound 0.1 µM, first compound 0.000316 µM
[2] = second compound 0.1 µM, first compound 0.001 µM
[3] = second compound 0.1 µM, first compound 0.00316 µM
[4] = second compound 0.1 µM, first compound 0.01 µM
[5] = second compound 0.1 µM, first compound 0.0316 µM
[6] = second compound 0.1 µM, first compound 0.1 µM
[7] = second compound 0.316 µM, first compound 0.000316 µM
[8] = second compound 0.316 µM, first compound 0.001 µM
[9] = second compound 0.316 µM, first compound 0.00316 µM
[10] = second compound 0.316 µM, first compound 0.01 µM
[11] = second compound 0.316 µM, first compound 0.0316 µM
[12] = second compound 0.316 µM, first compound 0.1 µM
[13] = second compound 1 µM, first compound 0.000316 µM
[14] = second compound 1 µM, first compound 0.001 µM
[15] = second compound 1 µM, first compound 0.00316 µM
[16] = second compound 1 µM, first compound 0.01 µM
[17] = second compound 1 µM, first compound 0.0316 µM
[18] = second compound 1 µM, first compound 0.1 µM
[19] = second compound 3.16 µM, first compound 0.000316 µM
[20] = second compound 3.16 µM, first compound 0.001 µM
[21] = second compound 3.16 µM, first compound 0.00316 µM
[22] = second compound 3.16 µM, first compound 0.01 µM
[23] = second compound 3.16 µM, first compound 0.0316 µM
[24] = second compound 3.16 µM, first compound 0.1 µM
[25] = second compound 10 µM, first compound 0.000316 µM
[26] = second compound 10 µM, first compound 0.001 µM
[27] = second compound 10 µM, first compound 0.00316 µM
[28] = second compound 10 µM, first compound 0.01 µM
[29] = second compound 10 µM, first compound 0.0316 µM
[30] = second compound 10 µM, first compound 0.1 µM
[31] = second compound 0.1 µM, first compound 0.316 µM
[32] = second compound 0.1 µM, first compound 1 µM
[33] = second compound 0.1 µM, first compound 3.16 µM
[34] = second compound 0.1 µM, first compound 10 µM
[35] = second compound 0.316 µM, first compound 0.316 µM
[36] = second compound 0.316 µM, first compound 1 µM
[37] = second compound 0.316 µM, first compound 3.16 µM
[38] = second compound 0.316 µM, first compound 10 µM
[39] = second compound 1 µM, first compound 0.316 µM
[40] = second compound 1 µM, first compound 1 µM
[41] = second compound 1 µM, first compound 3.16 µM
[42] = second compound 1 µM, first compound 10 µM
[43] = second compound 3.16 µM, first compound 0.316 µM
[44] = second compound 3.16 µM, first compound 1 µM
[45] = second compound 3.16 µM, first compound 3.16 µM
[46] = second compound 3.16 µM, first compound 10 µM
[47] = second compound 10 µM, first compound 0.316 µM
[48] = second compound 10 µM, first compound 1 µM
[49] = second compound 10 µM, first compound 3.16 µM
[50] = second compound 10 µM, first compound 10 µM
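Further: drug exposure lasted seven days.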
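Wherever viability, T/C is given: 100% = DMSO vehicle wells and lower means fewer viable cells.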

Cn1ncnc1[C@H]1c2n[nH]c(=O)c3cc(F)cc(c23)N[C@@H]1c1ccc(F)cc1 + C=CC(=O)N1CCN(c2nc(=O)n(-c3c(C)ccnc3C(C)C)c3nc(-c4c(O)cccc4F)c(F)cc23)C(C)C1
IC50 (second compound 0.1 µM): > 100 nM
IC50 (second compound 0.316 µM): > 100 nM
IC50 (second compound 1 µM): > 100 nM
IC50 (second compound 3.16 µM): > 100 nM
IC50 (second compound 10 µM): > 100 nM
viability, T/C [1]: 106%
viability, T/C [2]: 109%
viability, T/C [3]: 101%
viability, T/C [4]: 107%
viability, T/C [5]: 96.5%
viability, T/C [6]: 95%
viability, T/C [7]: 110%
viability, T/C [8]: 102%
viability, T/C [9]: 116%
viability, T/C [10]: 94.9%
viability, T/C [11]: 105%
viability, T/C [12]: 108%
viability, T/C [13]: 114%
viability, T/C [14]: 109%
viability, T/C [15]: 118%
viability, T/C [16]: 97.5%
viability, T/C [17]: 110%
viability, T/C [18]: 118%
viability, T/C [19]: 102%
viability, T/C [20]: 104%
viability, T/C [21]: 101%
viability, T/C [22]: 100%
viability, T/C [23]: 99.7%
viability, T/C [24]: 96.4%
viability, T/C [25]: 81.8%
viability, T/C [26]: 80.2%
viability, T/C [27]: 83.4%
viability, T/C [28]: 83.2%
viability, T/C [29]: 82.5%
viability, T/C [30]: 78%

CN(C)C/C=C/C(=O)Nc1cc2c(Nc3ccc(F)c(Cl)c3)ncnc2cc1O[C@H]1CCOC1 + CC1OCC2(CCN(c3cnc(Sc4ccnc(N)c4Cl)c(N)n3)CC2)C1N
IC50 (second compound 0.1 µM): > 100 nM
IC50 (second compound 0.316 µM): 51.1 nM
IC50 (second compound 1 µM): 86.2 nM
IC50 (second compound 3.16 µM): 24.4 nM
IC50 (second compound 10 µM): > 100 nM
viability, T/C [1]: 99.4%
viability, T/C [2]: 84.2%
viability, T/C [3]: 76.7%
viability, T/C [4]: 55.3%
viability, T/C [5]: 62.1%
viability, T/C [6]: 54.8%
viability, T/C [7]: 99%
viability, T/C [8]: 84.7%
viability, T/C [9]: 69.8%
viability, T/C [10]: 52.9%
viability, T/C [11]: 53%
viability, T/C [12]: 48.3%
viability, T/C [13]: 105%
viability, T/C [14]: 86.4%
viability, T/C [15]: 87.4%
viability, T/C [16]: 64.9%
viability, T/C [17]: 69.8%
viability, T/C [18]: 44.7%
viability, T/C [19]: 124%
viability, T/C [20]: 117%
viability, T/C [21]: 89.7%
viability, T/C [22]: 124%
viability, T/C [23]: 28.3%
viability, T/C [24]: 34.8%
viability, T/C [25]: 110%
viability, T/C [26]: 101%
viability, T/C [27]: 71.8%
viability, T/C [28]: 60.9%
viability, T/C [29]: 50.1%
viability, T/C [30]: 49.2%

Cn1ncnc1[C@H]1c2n[nH]c(=O)c3cc(F)cc(c23)N[C@@H]1c1ccc(F)cc1 + CNCc1ccccc1-c1csc(C(C)Nc2nc(C)nc3cc(OC)c(OC)cc23)c1
IC50 (second compound 0.1 µM): > 100 nM
IC50 (second compound 0.316 µM): > 100 nM
IC50 (second compound 1 µM): > 100 nM
IC50 (second compound 3.16 µM): < 0.316 nM
IC50 (second compound 10 µM): < 0.316 nM
viability, T/C [1]: 96.3%
viability, T/C [2]: 93.7%
viability, T/C [3]: 85.5%
viability, T/C [4]: 92.1%
viability, T/C [5]: 85.9%
viability, T/C [6]: 90.6%
viability, T/C [7]: 89.1%
viability, T/C [8]: 82.2%
viability, T/C [9]: 91.1%
viability, T/C [10]: 80%
viability, T/C [11]: 80.5%
viability, T/C [12]: 72.2%
viability, T/C [13]: 68.3%
viability, T/C [14]: 78.4%
viability, T/C [15]: 72.2%
viability, T/C [16]: 74.4%
viability, T/C [17]: 78.4%
viability, T/C [18]: 70.2%
viability, T/C [19]: 0.28%
viability, T/C [20]: 2.23%
viability, T/C [21]: 0.7%
viability, T/C [22]: 0.93%
viability, T/C [23]: 1.22%
viability, T/C [24]: 1.42%
viability, T/C [25]: 0.15%
viability, T/C [26]: 0.17%
viability, T/C [27]: 0.15%
viability, T/C [28]: 0.86%
viability, T/C [29]: 0.21%
viability, T/C [30]: 0.26%

CC(C)NCC(C(=O)N1CCN(c2ncnc3c2C(C)CC3O)CC1)c1ccc(Cl)cc1 (stereo not given) + CNCc1ccccc1-c1csc(C(C)Nc2nc(C)nc3cc(OC)c(OC)cc23)c1
IC50 (second compound 0.1 µM): > 10000 nM
IC50 (second compound 0.316 µM): > 10000 nM
IC50 (second compound 1 µM): > 10000 nM
IC50 (second compound 3.16 µM): < 31.6 nM
IC50 (second compound 10 µM): < 31.6 nM
viability, T/C [5]: 88.1%
viability, T/C [6]: 84.2%
viability, T/C [31]: 74.7%
viability, T/C [32]: 69.8%
viability, T/C [33]: 80.4%
viability, T/C [34]: 70.2%
viability, T/C [11]: 74.9%
viability, T/C [12]: 80%
viability, T/C [35]: 64.8%
viability, T/C [36]: 64.5%
viability, T/C [37]: 66.7%
viability, T/C [38]: 63%
viability, T/C [17]: 77.6%
viability, T/C [18]: 62.7%
viability, T/C [39]: 67.6%
viability, T/C [40]: 64.3%
viability, T/C [41]: 66.9%
viability, T/C [42]: 61.4%
viability, T/C [23]: 0.31%
viability, T/C [24]: 0.37%
viability, T/C [43]: 0.26%
viability, T/C [44]: 0.31%
viability, T/C [45]: 1.96%
viability, T/C [46]: 0.86%
viability, T/C [29]: 0.16%
viability, T/C [30]: 0.14%
viability, T/C [47]: 0.24%
viability, T/C [48]: 0.25%
viability, T/C [49]: 0.16%
viability, T/C [50]: 0.27%

COC(=O)c1ccc2c(C(=Nc3ccc(N(C)C(=O)CN4CCN(C)CC4)cc3)c3ccccc3)c(O)[nH]c2c1 + C=CC(=O)N1CCN(c2nc(OCC3CCCN3C)nc3c2CCN(c2cccc4cccc(C)c24)C3)CC1CC#N
IC50 (second compound 0.0316 µM): 3090 nM
IC50 (second compound 0.1 µM): 2840 nM
IC50 (second compound 0.316 µM): 2840 nM
IC50 (second compound 1 µM): 1830 nM
IC50 (second compound 3.16 µM): < 31.6 nM
viability, T/C (second compound 0.0316 µM, first compound 0.0316 µM): 96.2%
viability, T/C (second compound 0.0316 µM, first compound 0.1 µM): 110%
viability, T/C (second compound 0.0316 µM, first compound 0.316 µM): 116%
viability, T/C (second compound 0.0316 µM, first compound 1 µM): 123%
viability, T/C (second compound 0.0316 µM, first compound 3.16 µM): 48.8%
viability, T/C (second compound 0.0316 µM, first compound 10 µM): 0.2%
viability, T/C [5]: 91.8%
viability, T/C [6]: 116%
viability, T/C [31]: 102%
viability, T/C [32]: 111%
viability, T/C [33]: 44.3%
viability, T/C [34]: 1.53%
viability, T/C [11]: 79.7%
viability, T/C [12]: 102%
viability, T/C [35]: 103%
viability, T/C [36]: 106%
viability, T/C [37]: 45.1%
viability, T/C [38]: 1.91%
viability, T/C [17]: 74.3%
viability, T/C [18]: 75.5%
viability, T/C [39]: 90.2%
viability, T/C [40]: 95.4%
viability, T/C [41]: 19.1%
viability, T/C [42]: 1.01%
viability, T/C [23]: 36.9%
viability, T/C [24]: 31.4%
viability, T/C [43]: 37.8%
viability, T/C [44]: 5.71%
viability, T/C [45]: 1.1%
viability, T/C [46]: 0.76%

O=C(c1cc(Cc2n[nH]c(=O)c3ccccc23)ccc1F)N1CCN(C(=O)C2CC2)CC1 + C=CC(=O)N1CCN(c2nc(=O)n(-c3c(C)ccnc3C(C)C)c3nc(-c4c(O)cccc4F)c(F)cc23)C(C)C1
IC50 (second compound 0.1 µM): > 10000 nM
IC50 (second compound 0.316 µM): > 10000 nM
IC50 (second compound 1 µM): > 10000 nM
IC50 (second compound 3.16 µM): > 10000 nM
IC50 (second compound 10 µM): > 10000 nM
viability, T/C [5]: 110%
viability, T/C [6]: 103%
viability, T/C [31]: 113%
viability, T/C [32]: 96.1%
viability, T/C [33]: 101%
viability, T/C [34]: 96.2%
viability, T/C [11]: 118%
viability, T/C [12]: 118%
viability, T/C [35]: 106%
viability, T/C [36]: 104%
viability, T/C [37]: 93.8%
viability, T/C [38]: 111%
viability, T/C [17]: 118%
viability, T/C [18]: 114%
viability, T/C [39]: 110%
viability, T/C [40]: 99.3%
viability, T/C [41]: 99.7%
viability, T/C [42]: 111%
viability, T/C [23]: 103%
viability, T/C [24]: 105%
viability, T/C [43]: 95.4%
viability, T/C [44]: 104%
viability, T/C [45]: 98.2%
viability, T/C [46]: 81.5%
viability, T/C [29]: 84.4%
viability, T/C [30]: 84.7%
viability, T/C [47]: 87.1%
viability, T/C [48]: 84%
viability, T/C [49]: 84.2%
viability, T/C [50]: 83.9%
